Measurements taken from article PMC3951269 (Nature, 2013).

Key:
CPTP (GLTPD1) [1] = target: T1, CPTP (GLTPD1) (Homo sapiens, UniProt Q5TA50); assay: X-ray crystal structure; type: binding; details: sphingosine-in mode site as C1P
T1 sequence (Q5TA50 1-214): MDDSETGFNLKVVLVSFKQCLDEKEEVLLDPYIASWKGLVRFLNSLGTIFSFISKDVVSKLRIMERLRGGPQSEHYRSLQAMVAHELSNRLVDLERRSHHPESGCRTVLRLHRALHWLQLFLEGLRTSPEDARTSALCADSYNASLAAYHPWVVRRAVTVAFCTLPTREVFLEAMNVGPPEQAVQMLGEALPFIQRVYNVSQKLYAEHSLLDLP

CPTP (GLTPD1) [2] = target: T1, CPTP (GLTPD1); assay: FRET lipid transfer between POPC vesicles; type: biochemical; details: 37 °C; labelled compound

Row | SMILES | X-ray crystal structure (CPTP (GLTPD1) [1]) | transfer rate (CPTP (GLTPD1) [2])
1 | CCCCCCCCCCCC(=O)OC[C@H](COP(=O)(O)O)OC(=O)CCCCCCCCCCC [di12:0-PA] | PA occupies the same binding site | –
2 | CCCCCCCCCCCCC/C=C/[C@@H](O)[C@H](COP(=O)(O)O)NC(=O)CCCCCCCCC/C=C/c1c2ccccc2cc2ccccc12 [AV-C1P, anthrylvinyl-C1P] | – | ~ 4 C1P molecules/min/protein
